Laboratory results as given in patent publication US10336762B2 (priority 2017, dated 2019).
Read-outs that look alike come from different tables or passages of the source.

Legend:
TNFα = test: cells; assay type: cell-based, human; conditions: Homo sapiens, Monocyte, LPS-stimulated human monocytes, read-out: EC50 TNF
IRAK4 enzyme = IRAK4 enzyme (Homo sapiens (Human), UniProt Q9NWZ3); test: biochemical; assay type: biochemical; conditions: IRAK4 enzyme, 500 μM ATP
Sequence of IRAK4 enzyme (Q9NWZ3 whole entry): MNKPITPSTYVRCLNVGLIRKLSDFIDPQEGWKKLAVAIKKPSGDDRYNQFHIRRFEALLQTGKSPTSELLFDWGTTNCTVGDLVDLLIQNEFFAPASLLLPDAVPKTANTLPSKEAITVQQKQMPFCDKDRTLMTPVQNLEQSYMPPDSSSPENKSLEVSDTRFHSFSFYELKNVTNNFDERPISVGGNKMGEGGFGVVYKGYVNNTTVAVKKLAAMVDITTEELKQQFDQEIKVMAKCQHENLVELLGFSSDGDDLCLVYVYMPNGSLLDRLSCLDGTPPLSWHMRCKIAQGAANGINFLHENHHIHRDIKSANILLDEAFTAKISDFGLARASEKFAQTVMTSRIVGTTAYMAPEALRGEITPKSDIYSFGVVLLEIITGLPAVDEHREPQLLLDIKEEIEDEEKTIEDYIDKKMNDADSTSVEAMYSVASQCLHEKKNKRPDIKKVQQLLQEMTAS

SMILES	EC50 (TNFα; TNFα content) [nM]	IC50 (IRAK4 enzyme; TR-FRET (HTRF)) [nM]	EC50 (TNFα; TNFα by TR-FRET) [nM]	IC50 (IRAK4 enzyme; TR-FRET) [nM]
CC(C)(O)[C@H](F)CNC(=O)c1cnc(-c2ccc3cc(C#N)cnn23)cc1NC12CCC(F)(CC1)CC2 [Example 503, (R)-6-(3-cyanopyrrolo[1,2-b]pyridazin-7-yl)-N-(2-fluoro-3-hydroxy-3-methylbutyl)-4-((4-fluorobicyclo[2.2.2]octan-1-yl)amino)nicotinamide]	46	2		
COC(=O)NCC12CC(Nc3cc(-c4ccc5cc(C#N)cnn45)ncc3C(=O)NC[C@@H](F)C(C)(C)O)(C1)C2 [Example 547, (R)-methyl ((3-((2-(3-cyanopyrrolo[1,2-b]pyridazin-7-yl)-5-((2-fluoro-3-hydroxy-3-methylbutyl)carbamoyl)pyridin-4-yl)amino)bicyclo[1.1.1]pentan-1-yl)methyl)carbamate]	28	< 1		
CC(C)(O)[C@H](F)CNC(=O)c1cnc(-c2ccc3cc(C#N)cnn23)cc1Nc1cnn([C@H]2CNC[C@H]2F)c1 [Example 914, 6-(3-cyanopyrrolo[1,2-b]pyridazin-7-yl)-N-((R)-2-fluoro-3-hydroxy-3-methylbutyl)-4-((1-((3S,4R)-4-fluoropyrrolidin-3-yl)-1H-pyrazol-4-yl)amino)nicotinamide]			13	< 1
CC(C)(O)[C@H](F)CNC(=O)c1cnc(-c2ccc3cc(C#N)cnn23)cc1NC1CCOCC1 [Example 42, (R)-6-(3-cyanopyrrolo[1,2-b]pyridazin-7-yl)-N-(2-fluoro-3-hydroxy-3-methylbutyl)-4-((tetrahydro-2H-pyran-4-yl)amino)nicotinamide]	35			< 1
COC(=O)NC(C)(CCNC(=O)c1cnc(-c2ccc3cc(C#N)cnn23)cc1NC(C)C)C(F)F (stereo not shown) [Example 553, methyl (4-(6-(3-cyano-pyrrolo[1,2-b]pyridazin-7-yl)-4-(isopropylamino)nicotinamido)-1,1-difluoro-2-methylbutan-2-yl)carbamate]	183	2		
CC(C)Nc1cc(-c2ccc3cc(C#N)cnn23)ncc1C(=O)NC1CC2(COC2)C1 [Example 96, 6-(3-cyanopyrrolo[1,2-b]pyridazin-7-yl)-4-(isopropyl-amino)-N-(2-oxaspiro[3.3]heptan-6-yl) nicotinamide]	79			2
CC(C)(O)[C@H](F)CNC(=O)c1cnc(-c2ccc3cc(C#N)cnn23)cc1NC1CCS(=O)(=O)CC1 [Example 75, (R)-6-(3-cyanopyrrolo[1,2-b]pyridazin-7-yl)-4-((1,1-dioxidotetrahydro-2H-thiopyran-4-yl)amino)-N-(2-fluoro-3-hydroxy-3-methylbutyl) nicotinamide]	544			3
N#CCNC(=O)c1cnc(-c2ccc3cc(C#N)cnn23)cc1NC12CCC(C(=O)NC3COC3)(CC1)CC2 [Example 454, N-(cyanomethyl)-6-(3-cyanopyrrolo[1,2-b]pyridazin-7-yl)-4-((4-(oxetan-3-ylcarbamoyl)bicyclo[2.2.2]octan-1-yl)amino)nicotinamide]	207	< 1		
CNC(=O)c1cnc(-c2ccc3cc(C#N)cnn23)cc1N[C@H]1CC[C@H](NC(C)=O)CC1 [Example 276, 4-(((1r,4r)-4-acetamidocyclohexyl)amino)-6-(3-cyano-pyrrolo[1,2-b]pyridazin-7-yl)-N-methylnicotinamide]	146			3
CNC(=O)c1cnc(-c2ccc3cc(C#N)cnn23)cc1NC12CC(NC(C)=O)(C1)C2 [Example 498, 4-((3-acetamidobicyclo[1.1.1]pentan-1-yl)amino)-6-(3-cyanopyrrolo[1,2-b]pyridazin-7-yl)-N-methyl-nicotinamide]	43	1		
CC(C)(O)[C@H](F)CNC(=O)c1cnc(-c2ccc3cc(C#N)cnn23)cc1N[C@H]1C[C@H](COC(=O)N2CC(F)(F)C2)C1 [Example 738, ((1R,3r)-3-((2-(3-cyano-pyrrolo[1,2-b]pyridazin-7-yl)-5-(((R)-2-fluoro-3-hydroxy-3-methylbutyl)carbamoyl)pyridin-4-yl)amino)cyclobutyl) methyl 3,3-difluoro-azetidine-1-carboxylate]	29	< 1		
CC(=O)N[C@H]1CC[C@H](NC(=O)c2cnc(-c3ccc4cc(C#N)cnn34)cc2NC(C)C)CC1 [Example 13, N-((1r,4r)-4-acetamidocyclohexyl)-6-(3-cyanopyrrolo[1,2-b]pyridazin-7-yl)-4-(isopropylamino)nicotinamide]	79			< 1
CC1(C)CC(Nc2cc(-c3ccc4cc(C#N)cnn34)ncc2C(=O)NC[C@@H](F)C(C)(C)O)CCO1 (stereo partly drawn) [Example 81, 6-(3-cyanopyrrolo[1,2-b]pyridazin-7-yl)-4-((2,2-dimethyltetrahydro-2H-pyran-4-yl)amino)-N-((R)-2-fluoro-3-hydroxy-3-methylbutyl) nicotinamide]	134			1
CC(C)(O)[C@H](F)CNC(=O)c1cnc(-c2ccc3cc(C#N)cnn23)cc1Nc1ccc(C2(N3CCOC3=O)CC2)cc1 [Example 876, (R)-6-(3-cyanopyrrolo[1,2-b]pyridazin-7-yl)-N-(2-fluoro-3-hydroxy-3-methylbutyl)-4-((4-(1-(2-oxooxazolidin-3-yl)cyclo-propyl)phenyl)amino) nicotinamide]			24	< 1
CC1(C(=O)NC[C@H]2C[C@H](Nc3cc(-c4ccc5cc(C#N)cnn45)ncc3C(=O)NC[C@@H](F)C(C)(C)O)C2)COC1 [Example 873, 6-(3-cyanopyrrolo[1,2-b]pyridazin-7-yl)-N-((R)-2-fluoro-3-hydroxy-3-methylbutyl)-4-(((1r,3R)-3-((3-methyloxetane-3-carboxamido)methyl)cyclobutyl)amino) nicotinamide]			102	< 1
CNC(=O)c1cnc(-c2ccc3cc(C#N)cnn23)cc1N[C@H]1CC[C@H](NC(=O)OC)CC1 [Example 274, methyl ((1r,4r)-4-((2-(3-cyanopyrrolo[1,2-b]pyridazin-7-yl)-5-(methylcarbamoyl)pyridin-4-yl)amino)cyclohexyl)carbamate]	144			1
CC(C)(O)[C@H](F)CNC(=O)c1cnc(-c2ccc3cc(C#N)cnn23)cc1NC12CCC(O)(CC1)C2 [Example 403, (R)-6-(3-cyanopyrrolo[1,2-b]pyridazin-7-yl)-N-(2-fluoro-3-hydroxy-3-methylbutyl)-4-((4-hydroxybicyclo[2.2.1]heptan-1-yl)amino) nicotinamide]	14	< 1		
COC(=O)NC[C@H]1C[C@H](Nc2cc(-c3ccc4cc(C#N)cnn34)ncc2C(=O)NCCC(C)(C)N)C1 [Example 819, methyl (((1r,3r)-3-((5-((3-amino-3-methylbutyl)carbamoyl)-2-(3-cyano-pyrrolo[1,2-b]pyridazin-7-yl)pyridin-4-yl)amino)cyclo-butyl)methyl)carbamate]			27	< 1
CC(C)(O)[C@H](F)CNC(=O)c1cnc(-c2ccc3cc(C#N)cnn23)cc1Nc1ccc(C#N)nc1 [Example 603, (R)-4-((6-cyanopyridin-3-yl)amino)-6-(3-cyano-pyrrolo[1,2-b]pyridazin-7-yl)-N-(2-fluoro-3-hydroxy-3-methylbutyl)nicotinamide]	81	1		
CN1CCC(C(=O)NC[C@H]2C[C@H](Nc3cc(-c4ccc5cc(C#N)cnn45)ncc3C(=O)NC[C@@H](F)C(C)(C)O)C2)CC1 [Example 794, 6-(3-cyanopyrrolo[1,2-b]pyridazin-7-yl)-N-((R)-2-fluoro-3-hydroxy-3-methylbutyl)-4-(((1r,3R)-3-((1-methylpiperidine-4-carboxamido)methyl)cyclo-butyl)amino)nicotinamide]	997	2		
CC(=O)N1C[C@H]2C[C@H](Nc3cc(-c4ccc5cc(C#N)cnn45)ncc3C(=O)NC[C@@H](F)C(C)(C)O)C[C@H]2C1 [Example 249, 4-(((3aR,5s,6aS)-2-acetyl-octahydrocyclopenta[c]pyrrol-5-yl)amino)-6-(3-cyanopyrrolo[1,2-b]pyridazin-7-yl)-N-((R)-2-fluoro-3-hydroxy-3-methylbutyl) nicotinamide]	100			2
CC(C)(O)[C@H](F)CNC(=O)c1cnc(-c2ccc3cc(C#N)cnn23)cc1NCCCS(C)(=O)=O [Example 103, (R)-6-(3-cyanopyrrolo[1,2-b]pyridazin-7-yl)-N-(2-fluoro-3-hydroxy-3-methylbutyl)-4-((3-(methylsulfonyl)propyl)amino)nicotinamide]	75			< 1
COC(=O)NC1CCC(NC(=O)c2cnc(-c3ccc4cc(C#N)cnn34)cc2N[C@H]2CCCC(O)C2)CC1 (stereo partly drawn) [Example 387, methyl ((1S,4r)-4-(6-(3-cyanopyrrolo[1,2-b]pyridazin-7-yl)-4-(((1S,3R)-3-hydroxy-cyclohexyl)amino)nicotinamido)cyclohexyl)carbamate]	112			2
Cc1nc(-c2ccc(Nc3cc(-c4ccc5cc(C#N)cnn45)ncc3C(=O)NC[C@@H](F)C(C)(C)O)cc2)no1 [Example 968, (R)-6-(3-cyanopyrrolo[1,2-b]pyridazin-7-yl)-N-(2-fluoro-3-hydroxy-3-methylbutyl)-4-((4-(5-methyl-1,2,4-oxadiazol-3-yl)phenyl)amino) nicotinamide]			81	1
CC(C)(O)CCNc1cc(-c2ccc3cc(C#N)cnn23)ncc1C(=O)NC[C@@H](F)C(C)(C)O [Example 80, (R)-6-(3-cyanopyrrolo[1,2-b]pyridazin-7-yl)-N-(2-fluoro-3-hydroxy-3-methylbutyl)-4-((3-hydroxy-3-methylbutyl)amino) nicotinamide]	88			< 1
CC(C)Nc1cc(-c2ccc3cc(C#N)cnn23)ncc1C(=O)NC1CC2(C1)CC(C)(O)C2 (stereo not shown) [Example 153, 6-(3-cyanopyrrolo[1,2-b]pyridazin-7-yl)-N-(6-hydroxy-6-methylspiro[3.3]heptan-2-yl)-4-(isopropylamino)nicotinamide]	91			< 1
